The numbers were not newly measured in paper PMC6985722 (Antimicrobial Agents and Chemotherapy, 2020), which cites them from elsewhere.

SMILES strings stand for the structures.

One series concerns RSV. Also on record: method as in ref 21 = [21]; 21. Hanfelt-Goade D , Maimon N , Nimer A , Riviere F , Catherinot E , Ison M , Jeong SH , Walsh E , Gafter-Gvili A , Nama SR , Napora P , Chowers M , Bergeron A , Zeltser D , Moudgil H , Limaye AP , C. As to conditions: hospitalized RSV-infected adults treated relatively late; cited from earlier work.
For series [1] the following is noted: cited from earlier work.

`Cc1cn2nc([C@@H]3CCCCN3C(=O)c3cc(Cl)ccc3NS(C)(=O)=O)cc2nc1N1CC[C@H](N)C1` [GS-5806]: in the series with RSV, the “Viral load and clinical outcomes” value is recorded as “failed to significantly reduce the viral load or improve clinical outcomes”.
Consider `CC(C)C(=O)OC[C@@]1(CCl)O[C@@H](n2ccc(N)nc2=O)[C@H](F)[C@@H]1OC(=O)C(C)C` [ALS-008176], for which, in series [1], the Terminal half-life was 63 h.
